In experiment [1] the test system is Klebsiella pneumoniae. The experiment can be described thus: Antibacterial activity against amoxicillin and amoxicillin-clavulanate resistant Klebsiella pneumoniae UCL-1 assessed as zone of inhibition by disk diffusion method. It is filed as functional. Background: In agar diffusion tests the substance spreads into inoculated agar from a disc or well.
In experiment [2] the test system is Klebsiella pneumoniae. Description: Antibacterial activity against human urinary Klebsiella pneumoniae UCL-1 harboring plasmid-encoded beta-lactamase OXA-48 by Etest method. It is filed as functional. The note with it: UCL-1, Urine.
Experiment [3] relates to Escherichia coli. Description: Antibacterial activity against Escherichia coli J53 harboring plasmid pA-1carrying beta-lactamase OXA-48 by Etest method. It is filed as functional.
Experiment [4] concerns Escherichia coli. Description: Antibacterial activity against Escherichia coli J53 harboring plasmid-encoded beta-lactamase OXA-48 by Etest method. The format is functional.
The test system of experiment [5] is Klebsiella pneumoniae. The experiment can be described thus: Antibacterial activity against Klebsiella pneumoniae 11978 harboring plasmid pA-1carrying beta-lactamase OXA-48 by Etest method. It is filed as functional.
The target of experiment [6] is Beta-lactamase OXA-48 (Klebsiella pneumoniae) (UniProt Q6XEC0). The experiment can be described thus: Compound hydrolyzing activity of Klebsiella pneumoniae beta-lactamase OXA-48. The note with it: UCL-1.
The test system of experiment [7] is Escherichia coli. The experiment can be described thus: Antibacterial activity against Escherichia coli J53 by Etest method. The format is functional.
Experiment [8] relates to Escherichia coli. Description: Antibacterial activity against Escherichia coli J53 harboring plasmid-encoded beta-lactamase OXA-48 by Etest method in presence of beta-lactamase inhibitor clavulanic acid. It is filed as functional.
For experiment [9], the system named is Klebsiella pneumoniae. The experiment can be described thus: Antibacterial activity against Klebsiella pneumoniae 11978 harboring plasmid pA-1carrying beta-lactamase OXA-48 by Etest method in presence of beta-lactamase inhibitor clavulanic acid. It is filed as functional.
Experiment [10] has as its system Escherichia coli. The experiment can be described thus: Antibacterial activity against Escherichia coli J53 harboring plasmid pA-1carrying beta-lactamase OXA-48 by Etest method in presence of beta-lactamase inhibitor clavulanic acid. The format is functional.
For experiment [11], the system named is Escherichia coli. Description: Antibacterial activity against Escherichia coli J53 by Etest method in presence of beta-lactamase inhibitor clavulanic acid. It is filed as functional.
Experiment [12] concerns Klebsiella pneumoniae. Description: Antibacterial activity against human urinary Klebsiella pneumoniae UCL-1 harboring plasmid-encoded beta-lactamase OXA-48 by Etest method in presence of beta-lactamase inhibitor clavulanic acid. The note with it: UCL-1, Urine. It is filed as functional.
Experiment [13] relates to Escherichia coli. The experiment can be described thus: Antibacterial activity against Escherichia coli J53 by Etest method in presence of beta-lactamase inhibitor Tazobactam. The format is functional.
Experiment [14] relates to Klebsiella pneumoniae. The experiment can be described thus: Antibacterial activity against Klebsiella pneumoniae 11978 harboring plasmid pA-1carrying beta-lactamase OXA-48 by Etest method in presence of beta-lactamase inhibitor Tazobactam. It is filed as functional.
The subject of experiment [15] is Escherichia coli. Description: Antibacterial activity against Escherichia coli J53 harboring plasmid-encoded beta-lactamase OXA-48 by Etest method in presence of beta-lactamase inhibitor Tazobactam. The format is functional.
The subject of experiment [16] is Escherichia coli. The experiment can be described thus: Antibacterial activity against Escherichia coli J53 harboring plasmid pA-1carrying beta-lactamase OXA-48 by Etest method in presence of beta-lactamase inhibitor Tazobactam. The format is functional.
Experiment [17] relates to Klebsiella pneumoniae. The experiment can be described thus: Antibacterial activity against human urinary Klebsiella pneumoniae UCL-1 harboring plasmid-encoded beta-lactamase OXA-48 by Etest method in presence of beta-lactamase inhibitor Tazobactam. The format is functional. The note with it: UCL-1, Urine.

Converted amounts (≈) assume the structure as drawn.

Sequence of Beta-lactamase OXA-48 (Klebsiella pneumoniae) (Q6XEC0 whole entry): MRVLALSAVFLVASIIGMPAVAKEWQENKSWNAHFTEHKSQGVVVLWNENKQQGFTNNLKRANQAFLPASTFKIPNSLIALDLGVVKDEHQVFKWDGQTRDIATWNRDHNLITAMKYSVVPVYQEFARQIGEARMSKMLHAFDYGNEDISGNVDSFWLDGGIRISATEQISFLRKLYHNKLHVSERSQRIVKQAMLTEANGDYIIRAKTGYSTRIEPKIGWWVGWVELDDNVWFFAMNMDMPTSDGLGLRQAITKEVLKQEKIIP

For orientation: MIC means the lowest concentration that inhibits growth of the organism. `C[C@@H](O)[C@H]1C(=O)N2C(C(=O)O)=C(S[C@@H]3CN[C@H](C(=O)Nc4cccc(C(=O)O)c4)C3)[C@H](C)[C@H]12` [ERTAPENEM]: in experiment [1], the “inhibition zone (IZ)” value is recorded as 18 mm. In addition, the MIC in experiment [2] is 4 µg/mL (≈ 8.41 µM); in experiment [3] it was 2 µg/mL (≈ 4.21 µM); in experiment [4] it was 2 µg/mL (≈ 4.21 µM); in [5], more than 32 µg/mL; in experiment [7], 0.03 µg/mL (≈ 0.0631 µM). Further, in experiment [6], the Activity was 0.04 µmol/min/mg.
`C[C@@H](O)[C@H]1C(=O)N2C(C(=O)O)=C(SCCNC=N)C[C@H]12` [IMIPENEM ANHYDROUS]: the “inhibition zone (IZ)” value in experiment [1] came out at 22 mm. The MIC in experiment [2] was determined as 0.75 µg/mL (≈ 2.51 µM); in [3], 1 µg/mL (≈ 3.34 µM); in experiment [4], 0.75 µg/mL (≈ 2.51 µM); in experiment [5], 64 µg/mL (≈ 214 µM). In [6], this compound came in with an Activity of 1.6 µmol/min/mg.
With `C[C@@H](O)[C@H]1C(=O)N2C(C(=O)O)=C(S[C@@H]3CN[C@H](C(=O)N(C)C)C3)[C@H](C)[C@H]12` [MEROPENEM], the “inhibition zone (IZ)” value in experiment [1] came to 23 mm. Also, the MIC in [2] was found to be 0.5 µg/mL (≈ 1.3 µM); in experiment [3] it was 0.5 µg/mL (≈ 1.3 µM); in experiment [4], 0.5 µg/mL (≈ 1.3 µM); in experiment [5], 64 µg/mL (≈ 167 µM); in [7], 0.03 µg/mL (≈ 0.0782 µM). Also, the Activity in experiment [6] is 0.05 µmol/min/mg.
Consider `C[C@H]1[C@H](NC(=O)/C(=N\OC(C)(C)C(=O)O)c2csc(N)n2)C(=O)N1S(=O)(=O)O` [AZTREONAM], for which the minimal inhibitory concentration (MIC) in experiment [2] is 0.064 µg/mL (≈ 0.147 µM); in experiment [3], 0.064 µg/mL (≈ 0.147 µM); in [4] it was 0.064 µg/mL (≈ 0.147 µM); in experiment [5], more than 256 µg/mL.
`CC1(C)S[C@@H]2[C@H](NC(=O)[C@H](N)c3ccc(O)cc3)C(=O)N2[C@H]1C(=O)O` [AMOXICILLIN]: the MIC in [8], in experiment [2], in experiment [9], in [3], in [10] and in experiment [4] was more than 256 µg/mL throughout. Further, the minimum inhibitory concentration (MIC) in [11] is 4 µg/mL; in [12], more than 256 µg/mL; in [5] it was more than 256 µg/mL; in experiment [7], 4 µg/mL (≈ 10.9 µM).
In the case of `CCN1CCN(C(=O)N[C@@H](C(=O)N[C@@H]2C(=O)N3[C@@H]2SC(C)(C)[C@@H]3C(=O)O)c2ccccc2)C(=O)C1=O` [PIPERACILLIN], the minimum inhibitory concentration (MIC) in [13] was 1 µg/mL; in experiment [2], 256 µg/mL (≈ 495 µM); in experiment [14], more than 256 µg/mL; in experiment [15] it was 128 µg/mL; in experiment [3], 128 µg/mL (≈ 247 µM); in experiment [4], 128 µg/mL (≈ 247 µM). The MIC in [16] was 128 µg/mL; in [17], 256 µg/mL; in experiment [5] it was more than 256 µg/mL; in experiment [7] it was 1 µg/mL (≈ 1.93 µM).
On to `CO[C@@]1(NC(=O)Cc2cccs2)C(=O)N2C(C(=O)O)=C(COC(N)=O)CS[C@@H]21` [CEFOXITIN], for which the minimal inhibitory concentration (MIC) in experiment [2] was determined as 2 µg/mL (≈ 4.68 µM); in experiment [3], 2 µg/mL (≈ 4.68 µM); in experiment [4] it was 2 µg/mL (≈ 4.68 µM); in experiment [5], 128 µg/mL (≈ 299 µM); in experiment [7], 2 µg/mL (≈ 4.68 µM).
`CC(=O)OCC1=C(C(=O)O)N2C(=O)[C@@H](NC(=O)Cc3cccs3)[C@H]2SC1` [CEPHALOTHIN]: the minimal inhibitory concentration (MIC) is 16 µg/mL (≈ 40.4 µM) in [2]; 8 µg/mL (≈ 20.2 µM) in [3]; 8 µg/mL (≈ 20.2 µM) in experiment [4]; more than 256 µg/mL in [5]; 4 µg/mL (≈ 10.1 µM) in [7].
`CN(C)c1cc(NC(=O)CNC(C)(C)C)c(O)c2c1C[C@H]1C[C@H]3[C@H](N(C)C)C(O)=C(C(N)=O)C(=O)[C@@]3(O)C(O)=C1C2=O` [TIGECYCLINE]: the MIC in experiment [2] came out at 2 µg/mL (≈ 3.41 µM); in experiment [3], 0.5 µg/mL (≈ 0.854 µM); in [4], 0.5 µg/mL (≈ 0.854 µM); in experiment [5], 1.5 µg/mL (≈ 2.56 µM); in [7] it was 0.5 µg/mL (≈ 0.854 µM).
Turning to `CO/N=C(\C(=O)N[C@@H]1C(=O)N2C(C(=O)[O-])=C(C[N+]3(C)CCCC3)CS[C@H]12)c1csc(N)n1` [CEFEPIME], the MIC in [2] was 0.125 µg/mL (≈ 0.26 µM); in experiment [3], 0.125 µg/mL (≈ 0.26 µM); in experiment [4], 0.125 µg/mL (≈ 0.26 µM); in [5], 32 µg/mL (≈ 66.6 µM); in experiment [7], 0.03 µg/mL (≈ 0.0624 µM).
In the case of `CC(C)(O/N=C(\C(=O)N[C@@H]1C(=O)N2C(C(=O)[O-])=C(C[n+]3ccccc3)CS[C@H]12)c1csc(N)n1)C(=O)O` [CEFTAZIDIME], the MIC is 1 µg/mL (≈ 1.83 µM) in experiment [2]; 0.75 µg/mL (≈ 1.37 µM) in experiment [3]; 0.75 µg/mL (≈ 1.37 µM) in experiment [4]; more than 256 µg/mL in experiment [5]; 0.06 µg/mL (≈ 0.11 µM) in experiment [7].
For the compound `CC1(C)S[C@@H]2[C@H](NC(=O)[C@H](C(=O)O)c3ccsc3)C(=O)N2[C@H]1C(=O)O` [TICARCILLIN], the minimal inhibitory concentration (MIC) in experiment [8], in experiment [2], in experiment [9], in [3], in experiment [10] and in [4] was more than 256 µg/mL each time. Further, the MIC in experiment [11] is 2 µg/mL; in experiment [12], more than 256 µg/mL; in experiment [5], more than 256 µg/mL; in experiment [7], 2 µg/mL (≈ 5.2 µM).
For `CO/N=C(\C(=O)N[C@@H]1C(=O)N2C(C(=O)O)=C(COC(C)=O)CS[C@H]12)c1csc(N)n1` [CEFOTAXIME], the MIC in [2] turned out to be 0.125 µg/mL (≈ 0.274 µM); in experiment [3], 0.38 µg/mL (≈ 0.834 µM); in experiment [4] it was 0.38 µg/mL (≈ 0.834 µM); in experiment [5], 64 µg/mL (≈ 141 µM); in experiment [7], 0.06 µg/mL (≈ 0.132 µM).

The record behind these values is ChEMBL document CHEMBL1275509, “Plasmid-encoded carbapenem-hydrolyzing beta-lactamase OXA-48 in an imipenem-susceptible Klebsiella pneumoniae strain from Belgium” (2008).
